Measurements taken from ChEMBL document CHEMBL1156025, “GDC-0449-a potent inhibitor of the hedgehog pathway” (Bioorg Med Chem Lett, 2009).
Converted amounts (≈) assume the structure as drawn. The source made the active and inactive calls. No cut-off for these calls is given here.

Key:
[1] = Clearance in dog liver microsomes; assay type: ADME, Canis lupus familiaris, Microsome
[2] = Plasma concentration in human Calu6 cells xenografted in nude mouse at 75 mg/kg, po bid measured after 4 hrs post fifth dose; assay type: ADME, organism-based, Calu-6; set-up: dose 75 mg/kg, route oral
[3] = (§1) Fraction unbound in human Calu6 cells xenografted in nude mouse plasma at 75 mg/kg, po bid measured after 4 hrs post fifth dose; assay type: ADME, organism-based, Calu-6; set-up: dose 75 mg/kg, route oral; details: nude, plasma
Calu-6 = assay: Inhibition of hedgehog pathway in human Calu6 cells xenografted in nude mouse assessed as decrease in Gli transcription at 75 mg/kg, po bid measured after 4 hrs post fifth dose; assay type: functional, organism-based; set-up: dose 75 mg/kg
[4] = Aqueous solubility at pH 6.5; assay type: physicochemical
[5] = Aqueous solubility at pH 1; assay type: physicochemical
[6] = Clearance in rat liver microsomes; assay type: ADME, Microsome
Plasma = assay: as §1; assay type: ADME, organism-based, Calu-6; set-up: dose 75 mg/kg, route oral; details: in vivo, 4 h
Cytochrome P450 2C9 = Cytochrome P450 2C9 (Homo sapiens, UniProt P11712); assay: Inhibition of CYP2C9; assay type: ADME
Chain of Cytochrome P450 2C9 (P11712 whole entry): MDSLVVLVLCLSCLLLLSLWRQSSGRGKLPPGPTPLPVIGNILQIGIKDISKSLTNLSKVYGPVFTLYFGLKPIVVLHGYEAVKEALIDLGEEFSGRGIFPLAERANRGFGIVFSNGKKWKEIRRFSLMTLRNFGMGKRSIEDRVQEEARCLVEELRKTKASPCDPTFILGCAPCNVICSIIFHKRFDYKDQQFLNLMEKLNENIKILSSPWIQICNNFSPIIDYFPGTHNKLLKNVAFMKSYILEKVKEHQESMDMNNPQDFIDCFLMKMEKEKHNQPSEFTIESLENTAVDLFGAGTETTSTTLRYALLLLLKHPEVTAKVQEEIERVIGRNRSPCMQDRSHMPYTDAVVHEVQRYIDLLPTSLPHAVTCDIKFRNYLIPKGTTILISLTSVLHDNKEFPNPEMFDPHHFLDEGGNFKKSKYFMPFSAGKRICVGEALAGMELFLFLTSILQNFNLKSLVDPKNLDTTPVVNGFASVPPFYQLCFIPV

Row | Compound | CLint scaled [1] | concentration at 4 h [2] | fraction unbound at 4 h [3] | solubility [4] | solubility [5] | CLint scaled [6] | Fu (Plasma) | IC50 (Cytochrome P450 2C9) | Activity (Calu-6)
1 | Cc1nc(C(F)(F)F)ccc1C(=O)Nc1ccc(Cl)c(-c2nc3ccccc3[nH]2)c1 | 124 mL/min/kg | – | – | 0.3 µg/mL (≈ 0.696 µM) | 300 µg/mL (≈ 696 µM) | 3 mL/min/kg | – | – | –
2 | Cc1nc(C(F)(F)F)ccc1C(=O)Nc1ccc(Cl)c(-n2cc3ccccc3n2)c1 | – | – | – | – | – | 99.3 mL/min/kg | – | – | –
3 | Cc1nc(C(F)(F)F)ccc1C(=O)Nc1ccc(Cl)c(-c2nc3ccccc3n2C)c1 | – | – | – | – | – | – | – | 2.5 µM | –

Now from value to compound, other results behind:

Row | CLint scaled [1] | concentration at 4 h [2] | fraction unbound at 4 h [3] | solubility [4] | solubility [5] | CLint scaled [6] | Fu (Plasma) | IC50 (Cytochrome P450 2C9) | Compound | Activity (Calu-6)
4 | 1.4 mL/min/kg | 14 µM | 0.03 | 0.5 µg/mL (≈ 1.29 µM) | 420 µg/mL (≈ 1090 µM) | 1.2 mL/min/kg | – | – | CS(=O)(=O)c1ccc(C(=O)Nc2ccc(Cl)c(-c3ccccn3)c2)cc1 | inactive
5 | 7.4 mL/min/kg | – | – | 0.1 µg/mL (≈ 0.226 µM) | 0.1 µg/mL (≈ 0.226 µM) | 10.7 mL/min/kg | – | – | Cc1nc(C(F)(F)F)ccc1C(=O)Nc1ccc(Cl)c(-c2cnc3ccccc3n2)c1 | –
6 | 0.4 mL/min/kg | 23 µM | – | 9.5 µg/mL (≈ 22.5 µM) | > 3000 µg/mL | 3.7 mL/min/kg | 9% | – | CS(=O)(=O)c1ccc(C(=O)Nc2ccc(Cl)c(-c3ccccn3)c2)c(Cl)c1 [VISMODEGIB] | –
7 | 1.9 mL/min/kg | 0.86 µM | – | 1.8 µg/mL (≈ 4.59 µM) | 1000 µg/mL (≈ 2550 µM) | 4.5 mL/min/kg | – | – | Cc1nc(C(F)(F)F)ccc1C(=O)Nc1ccc(Cl)c(-c2ccccn2)c1 | inactive
